The results in this text go back to patent publication US20260001893A1, “SMALL MOLECULE MODULATORS OF STAT6” (Gilead Sciences, Inc., priority 2024, published 2026).

The structures appear in SMILES notation.

Assay [1] addresses T1, Human STAT6 (truncated, aa122-658, with N-terminal His-tag) (Homo sapiens, UniProt P42226).
T1 construct: Human STAT6 (truncated, aa122-658, with N-terminal His-tag, expressed in insect cells); His-tag (N); made in house; host or cells: insect cells
T1 sequence (P42226 122-658): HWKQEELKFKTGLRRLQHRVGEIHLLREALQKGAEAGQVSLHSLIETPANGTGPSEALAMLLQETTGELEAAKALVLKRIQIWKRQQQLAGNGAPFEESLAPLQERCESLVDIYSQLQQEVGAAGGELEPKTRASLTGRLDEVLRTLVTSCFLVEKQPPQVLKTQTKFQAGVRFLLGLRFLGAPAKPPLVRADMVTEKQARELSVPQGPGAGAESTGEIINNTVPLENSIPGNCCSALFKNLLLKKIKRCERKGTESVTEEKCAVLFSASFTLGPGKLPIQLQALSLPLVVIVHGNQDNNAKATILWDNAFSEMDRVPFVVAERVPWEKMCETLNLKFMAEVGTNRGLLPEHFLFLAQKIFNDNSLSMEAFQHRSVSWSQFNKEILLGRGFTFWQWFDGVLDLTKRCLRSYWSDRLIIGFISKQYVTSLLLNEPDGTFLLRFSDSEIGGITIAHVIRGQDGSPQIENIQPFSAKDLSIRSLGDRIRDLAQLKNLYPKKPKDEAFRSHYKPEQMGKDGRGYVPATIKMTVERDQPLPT
The assay is described as follows: Surface plasmon resonance (SPR) assay, binding to human STAT6. The following applies: Biacore 8K, 25° C, immobilized human STAT6 on CM5 chip, multi-cycle kinetics; geometric mean. On the procedure: Surface Plasmon Resonance Assay
Biacore instruments from the 8K-series (Cytiva) were used, and measurements were performed at 25° C. Human STAT6 (truncated, aa122-658, with N-terminal His-tag, expressed in insect cells) was immobilized in the active flow cells on a CM5 chip using amine-coupling (default settings) at 10 μg/ml in 10 mM acetate buffer pH 5.5, at a contact time of 120-420 sec. and a flow rate of 10 μl/min. Reference flow cells were deactivated using blank immobilization. PBS-P+(Cytiva) supplemented with 2% DMSO was used as running buffer, and solvent correction was applied. Compounds were tested by multi-cycle kinetics injections using a contact time of 60 sec., dissociation time of up to 300 sec., and a flow rate of 30 μl/min.
Solvent-corrected, reference-subtracted and blank-corrected data was processed and binding isotherms were fitted according to a single report point from each sensorgram (Standard: Late binding (5 sec. before injection end); alternative: Earlier report point according to binding profile). Data fitting was done both with unfixed Rmax and with Rmax fixed to the theoretical value* assuming 1:1 binding to allow processing of data from both weak and strong binders as well as to evaluate binding stoichiometry.
Positive controls were run at the beginning, during, and at the end of the screen to evaluate surface activity.
*Equation for calculation of the theoretical Rmax(Theoretical Rmax=(MW Analyte/MW Ligand)×immobilization level).
Background: In SPR one partner is held on a chip, and binding of the other changes the refractive index at the surface.

Assay [2] relates to Eotaxin-3 (CCL26) release in human whole blood stimulated with IL-4. Put plainly: Human whole blood eotaxin-3 assay (IL-4 stimulated eotaxin-3 release). The conditions noted are these: human whole blood stimulated with recombinant human IL-4, 48 h, geometric mean; for EC50: inhibition of eotaxin-3 release, given for test compounds with >80% Emax; for Emax: given for test compounds with <80% Emax. In kind it is cell-based. The essentials:
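Eotaxin-3 (CCL26) release was quantified by MSD immunoassay in supernatants of human heparinised whole blood after 48 h at 37° C with IL-4 ([…] final). Compounds, in 4-fold dilutions at 0.5% DMSO, were added 2 h before stimulation.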

By Kd is commonly meant the constant that tells how readily two partners part at equilibrium. Low readings indicate a tighter complex, high ones a looser complex. `CNc1ccn(-c2ccnc3c2cc(CN2CC=C(c4ncc(C(=O)N(C)C)cc4C)CC2)n3C)c(=O)c1` [Example 1m14, N,N,3-Trimethyl-1′-((1-methyl-4-(4-(methylamino)-2-oxopyridin-1 (2H)-yl)-1H-pyrrolo[2,3-b]pyridin-2-yl)methyl)-1′, 2′, 3′, 6′-tetrahydro-[2,4′-bipyridine]-5-carboxamide]: the Kd in assay [1] turned out to be 0.0603 µM. As to `CN(C)C(=O)c1ccc(C2CCN(Cc3cc4c(-n5ccc(NCC6CC6)cc5=O)ccnc4n3C)CC2)cc1` [Example 1d7, 4-[1-[[4-[4-(cyclo-Propylmethylamino)-2-oxo-1-pyridyl]-1-methyl-pyrrolo[2,3-b]pyridin-2-yl]methyl]-4-piperidyl]-N,N-dimethyl-benzamide], the Kd in assay [1] was determined as 0.0998 µM. Against the preceding compound, the Kd is about 1.7-fold higher.

Compound `CN(C)C(=O)c1ccc(C2CCN(Cc3cc4c(-n5ccc(NCc6ccccc6)cc5=O)ccnc4n3C)CC2)cc1` [Example 1d12, 4-[1-[[4-[4-(Benzylamino)-2-oxo-1-pyridyl]-1-methyl-pyrrolo[2,3-b]pyridin-2-yl]methyl]-4-piperidyl]-N,N-dimethyl-benzamide] displayed a Kd in assay [1] of 0.031 µM. Same read-out and setting: for `Cc1cn(-c2ccnc3c2cc(CN2CCC(c4ccc(C(=O)N(C)C)cc4)CC2)n3C)c(=O)nc1N` [Example 1ac3, 4-(1-((4-(4-Amino-5-methyl-2-oxopyrimidin-1 (2H)-yl)-1-methyl-1H-pyrrolo[2,3-b]pyridin-2-yl)methyl)piperidin-4-yl)-N,N-dimethylbenzamide] the value was 0.0918 µM. On the same count and under the same terms, then `CN(C)C(=O)c1ccc(C2CCN(Cc3cc4c(-n5ccc(NC(=O)OC(C)(C)C)cc5=O)ccnc4n3C)CC2)cc1` [Example 1d2, tert-Butyl N-[1-[2-[[4-[4-(dimethylcarbamoyl)phenyl]-1-piperidyl]methyl]-1-methyl-pyrrolo[2,3-b]pyridin-4-yl]-2-oxo-4-pyridyl]carbamate], with 0.175 µM; and `CNc1ccn(-c2ccnc3c2cc(CN2CCC(c4ncc(C(=O)N(C)C)cc4C)CC2)n3C)c(=O)c1` [Example 1m15, N,N,5-Trimethyl-6-(1-((1-methyl-4-(4-(methylamino)-2-oxopyridin-1 (2H)-yl)-1H-pyrrolo[2,3-b]pyridin-2-yl)methyl)piperidin-4-yl)nicotinamide], with 0.572 µM; and `CNc1ccn(-c2ccnc3c2cc(CN2CCC(c4ccc(C(=O)N(C)C)cn4)CC2)n3C)c(=O)c1` [Example 1m11, N,N-Dimethyl-6-(1-((1-methyl-4-(4-(methylamino)-2-oxopyridin-1 (2H)-yl)-1H-pyrrolo[2,3-b]pyridin-2-yl)methyl)piperidin-4-yl)nicotinamide], with 0.113 µM. A word on the EC50: it is the concentration that produces a half-maximal response. In the case of `CNc1ccn(-c2ccnc3c2cc([C@@H](C)N2CC[C@H](c4c(C)cc(C(=O)N(C)C)cc4F)C(F)(F)C2)n3C)c(=O)c1` (single isomer, unassigned) [Example 1m141], in assay [2], the EC50 came to 0.61 µM. Regarding `C[C@H](c1cc2c(-n3ccc4c(c3=O)CCN4)ccnc2n1C)N1CC=C(c2c(F)cc(C(=O)N(C)C)cc2F)CC1` [Example 1m123, (R)-3,5-difluoro-N,N-dimethyl-4-(1-(1-(1-methyl-4-(4-oxo-1,2,3,4-tetrahydro-5H-pyrrolo[3,2-c]pyridin-5-yl)-1H-pyrrolo[2,3-b]pyridin-2-yl)ethyl)-1,2,3,6-tetrahydropyridin-4-yl)benzamide], the half-maximal effective concentration (EC50) in assay [2] (Homo sapiens, 48 h) was 0.211 µM.

Turning to `CN(C)C(=O)c1cc(F)c(C2=CCN(Cc3cc4c(-n5ccc6c(c5=O)CCN6)ccnc4n3C)CC2)c(F)c1` [Example 1m107, 3,5-difluoro-N,N-dimethyl-4-(1-((1-methyl-4-(4-oxo-1,2,3,4-tetrahydro-5H-pyrrolo[3,2-c]pyridin-5-yl)-1H-pyrrolo[2,3-b]pyridin-2-yl)methyl)-1,2,3,6-tetrahydropyridin-4-yl)benzamide], the concentration giving a half-maximal response (EC50) in assay [2] (Homo sapiens, 48 h) was determined as 0.0242 µM. Same read-out and setting: for `C[C@@H](c1cc2c(-n3ccc4c(c3=O)CCN4)ccnc2n1C)N1CCC(c2c(F)cc(C(=O)N(C)C)cc2F)CC1` [Example 1m126, (S)-3,5-difluoro-N,N-dimethyl-4-(1-(1-(1-methyl-4-(4-oxo-1,2,3,4-tetrahydro-5H-pyrrolo[3,2-c]pyridin-5-yl)-1H-pyrrolo[2,3-b]pyridin-2-yl)ethyl)piperidin-4-yl)benzamide] the value was 0.0122 µM; for `[2H]C([2H])([2H])N(C(=O)c1cc(C)c(C2=CCN(Cc3cc4c(-n5ccc(N)c(C)c5=O)ccnc4n3C)CC2)c(F)c1)C([2H])([2H])[2H]` [Example 1m94, 4-(1-((4-(4-amino-3-methyl-2-oxopyridin-1 (2H)-yl)-1-methyl-1H-pyrrolo[2,3-b]-pyridin-2-yl)methyl)-1,2,3,6-tetrahydropyridin-4-yl)-3-fluoro-5-methyl-N,N-bis(methyl-d3)benzamide], 0.00665 µM. Usually Emax stands for the greatest response seen or fitted, relative to the assay's reference. As to `[2H]C([2H])([2H])N(C(=O)c1ccc(C2CCN(Cc3cc4c(-n5ccc6c(c5=O)CCN6)ccnc4n3C)CC2)cc1)C([2H])([2H])[2H]` [Example 1d24, 4-[1-[[1-Methyl-4-(4-oxo-2,3-dihydro-1H-pyrrolo[3,2-c]pyridin-5-yl)pyrrolo[2,3-b]pyridin-2-yl]methyl]-4-piperidyl]-N,N-bis(trideuteriomethyl)benzamide], in assay [2] (Homo sapiens, 48 h), the Emax was 70 to 80%. Turning to `[2H]C([2H])([2H])N(C(=O)c1cc(C)c(C2=CCN(Cc3cc4c(-n5ccc(NC)cc5=O)ccnc4n3C)CC2)c(F)c1)C([2H])([2H])[2H]` [Example 1ad8, 3-Fluoro-5-methyl-N,N-bis(methyl-d3)-4-(1-((1-methyl-4-(4-(methylamino)-2-oxopyridin-1 (2H)-yl)-1H-pyrrolo[2,3-b]pyridin-2-yl)methyl)-1,2,3,6-tetrahydropyridin-4-yl)benzamide], the EC50 in assay [2] (Homo sapiens, 48 h) came out at 0.0089 µM. The same measure, in the same setting: then `CNc1c(F)cn(-c2ccnc3c2cc(CN2CCC(c4c(F)cc(C(=O)N(C)C)cc4F)CC2)n3C)c(=O)c1F` [Example 1m136, 4-(1-((4-(3,5-difluoro-4-(methylamino)-2-oxopyridin-1 (2H)-yl)-1-methyl-1H-pyrrolo[2,3-b]pyridin-2-yl)methyl)piperidin-4-yl)-3,5-difluoro-N,N-dimethylbenzamide], with 0.0481 µM. Still for that read-out and setting: for `Cc1cc(C(=O)N(C)C)cc(F)c1C1CCN(Cc2cc3c(-n4ccc5c(c4=O)CCN5)ccnc3n2C)CC1` [Example 1m103, 3-fluoro-N,N,5-trimethyl-4-(1-((1-methyl-4-(4-oxo-1,2,3,4-tetrahydro-5H-pyrrolo[3,2-c]pyridin-5-yl)-1H-pyrrolo[2,3-b]pyridin-2-yl)methyl)piperidin-4-yl)benzamide] the value was 0.0271 µM; for `[2H]C([2H])([2H])N(C(=O)c1cc(C)c(C2=CCN(Cc3cc4c(-n5ccc(NC)nc5=O)ccnc4n3C)CC2)c(F)c1)C([2H])([2H])[2H]` [Example 1m96, 3-fluoro-5-methyl-N,N-bis(methyl-d3)-4-(1-((1-methyl-4-(4-(methylamino)-2-oxopyrimidin-1 (2H)-yl)-1H-pyrrolo[2,3-b]pyridin-2-yl)methyl)-1,2,3,6-tetrahydropyridin-4-yl)benzamide], 0.00352 µM.

Regarding `Cc1cc(C(=O)N(C)C)nnc1C1=CCN(Cc2cc3c(-n4ccc5c(c4=O)CCN5)ccnc3n2C)CC1` [Example 1m81, N,N,5-trimethyl-6-(1-((1-methyl-4-(4-oxo-1,2,3,4-tetrahydro-5H-pyrrolo[3,2-c]pyridin-5-yl)-1H-pyrrolo[2,3-b]pyridin-2-yl)methyl)-1,2,3,6-tetrahydropyridin-4-yl)pyridazine-3-carboxamide], in assay [2] (Homo sapiens, 48 h), the Emax is 30 to 40%. On to `CNc1ccn(-c2ccnc3c2cc(CN2CCC(c4ccc(C(=O)N(C)C)cc4)C[C@@H]2C)n3C)c(=O)c1` (single isomer, unassigned) [Example 1d43], for which the EC50 in assay [2] (Homo sapiens, 48 h) was determined as 0.0219 µM.
